Experimental data from PubChem BioAssay (NCI).
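Protocol summary: plate cells (96-well), add compound at 5 concentrations, incubate 48 h, interpolate endpoints linearly. The concentration for 50% growth inhibition is given as GI50. TGI marks complete inhibition of growth.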

Assays:
Test in all cases: growth of human tumour cells (NCI), 48 h
SF-268 CNS = system: SF-268 CNS
TK-10 renal = system: TK-10 renal
UACC-257 melanoma = system: UACC-257 melanoma
SW-620 colon = system: SW-620 colon
MALME-3M melanoma = system: MALME-3M melanoma
UO-31 renal = system: UO-31 renal
MCF7 breast = system: MCF7 breast
A498 renal = system: A498 renal
SN12C renal = system: SN12C renal
HL-60(TB) leukemia = system: HL-60(TB) leukemia

Compound | TGI (SF-268 CNS) [µM] | TGI (TK-10 renal) [µM] | TGI (UACC-257 melanoma) [µM] | TGI (SW-620 colon) [µM] | TGI (MALME-3M melanoma) [µM] | TGI (UO-31 renal) [µM] | TGI (MCF7 breast) [µM] | TGI (A498 renal) [µM] | TGI (SN12C renal) [µM] | TGI (HL-60(TB) leukemia) [µM] | GI50 (MALME-3M melanoma) [µM]
CC(C)(NC1=NCCO1)c1ccccc1 | > 100 | > 100 | > 100 | > 100 | > 100 | > 100 | > 100 | > 100 | > 100 | – | –
CC(C)C(C/C=C1\CC(CO)(COC(=O)CC(C(C)C)C(C)C)OC1=O)C(C)C (stereo not drawn) | 27.6 | 21.8 | 29.5 | 21.6 | 14.5 | 20 | 31.3 | 25.5 | 22.1 | 18.8 | –
CC1CCC2(CC1)N=C1CCC(C)CC1C1(CCC(C)CC1)N2 (stereo not drawn) | – | > 100 | > 100 | > 100 | > 100 | > 100 | > 100 | > 100 | – | > 100 | –
COc1nc2[nH]ccc2c(=O)n1C | > 100 | > 100 | > 100 | > 100 | > 100 | – | – | > 100 | > 100 | > 100 | –
CS(=O)(=O)O.[Ag] | 39.7 | 7.74 | 24.4 | 19.5 | 3.79 | 3.52 | 24.8 | 40 | 38.7 | 11.4 | –
CN(C)CCn1c(=O)c2ccc3c4c(nn3CCN(C)C)c3ccccc3n(c1=O)c24 | 5.12 | 2.35 | 3.24 | 32 | 2.13 | 2.42 | 1.05 | 1.34 | 1.59 | 2.75 | –
C/C(N=Nc1nc2ccccc2o1)=C1/C=CC=CN1O | > 100 | 34.9 | > 100 | > 100 | 12.2 | > 100 | 81.2 | > 100 | > 100 | – | –
Clc1ncnc2c1ncn2CCCCCCCCCCCCn1cnc2c(Cl)ncnc21 | 27.7 | 54.1 | 11.9 | 60.8 | – | 25.8 | – | 24.6 | 37.5 | 19.1 | –
OCCO[P+]1(OCCO)n2c3ccc2C(c2ccccc2)=C2C=CC(=N2)C(c2ccccc2)=c2ccc(n21)=C(c1ccccc1)C1=NC(=C3c2ccccc2)C=C1 | 2.15 | 1.5 | 0.0545 | 1.09 | – | 4.06 | > 100 | 1.49 | 0.125 | 0.222 | –
NC(=O)NCCCC(NC(=O)OCCCCCn1ccc(=O)[nH]c1=O)C(=O)O (stereo not drawn) | > 100 | > 100 | > 100 | > 100 | – | > 100 | > 100 | – | > 100 | > 100 | –
NC(=O)CS(=O)CC(N)C(=O)O (stereo not drawn) | > 100 | > 100 | > 100 | > 100 | > 100 | > 100 | – | > 100 | > 100 | – | –
COc1cc(-c2nc3nc(N4CCN(C)CC4)ccc3[nH]2)c(OC)c2[nH]c(COC(C)=O)nc12 | > 100 | > 100 | 61.4 | > 100 | 67.9 | 85.2 | 43.9 | > 100 | 98.8 | – | –
CCOC(=O)C(C)c1nc2cc(N3CCN(C)CC3)c(F)cc2[nH]c1=O (stereo not drawn) | > 100 | – | > 100 | > 100 | > 100 | > 100 | > 100 | > 100 | > 100 | > 100 | –
Nc1c(S(=O)(=O)O)cc(Nc2cccc(S(=O)(=O)/C=C/S(=O)(=O)O)c2)c2c1C(=O)c1ccccc1C2=O | > 100 | > 100 | > 100 | > 100 | > 100 | – | > 100 | > 100 | > 100 | > 100 | –
COC(=O)c1cccc(C(=O)OC)c1 | > 100 | > 100 | > 100 | > 100 | > 100 | – | – | > 100 | > 100 | > 100 | –
CCOC12SC(=Nc3ccc(C)cc3)NN1C(=S)N(C)N=C2C (stereo not drawn) | > 100 | – | > 100 | > 100 | – | – | – | > 100 | > 100 | > 100 | –
CC(C)C1=CC23CCC4C(C)(C(=O)O)CCCC4(C)C2CC1C(C(=O)O)C3C(=O)O (stereo not drawn) | > 100 | > 100 | – | > 100 | > 100 | > 100 | – | > 100 | > 100 | – | –
c1ccc(C2=C(c3ccccc3)P(c3ccccc3)C2)cc1 (stereo not drawn) | > 100 | > 100 | > 100 | > 100 | > 100 | – | > 100 | > 100 | > 100 | – | –
CC(=O)Nc1ccc(-c2nnc(SCC(=O)Nc3ccccc3C)o2)cc1 | > 100 | > 100 | > 100 | > 100 | > 100 | > 100 | – | – | > 100 | > 100 | –
COc1cc(CNc2nc3cc(C(F)(F)F)ccc3nc2C)cc(OC)c1OC | > 100 | 42.6 | 37.9 | 33.6 | 41.8 | 63.9 | – | – | 30.8 | 51.9 | –
O=C1C[C@H](c2ccccc2)C2(C(=O)c3ccccc3C2=O)[C@H](c2ccccc2)C1 | – | – | – | – | > 100 | > 100 | – | > 100 | > 100 | > 100 | –
c1ccc(Nc2nnc(-c3nsc4ccccc34)o2)cc1 | > 100 | > 100 | > 100 | > 100 | – | > 100 | – | – | > 100 | > 100 | –
Cc1c(F)c(N)c2c(=O)cc(-c3ccc(NC(=O)C(N)CCCN=C(N)N)c(F)c3)oc2c1F (stereo not drawn) | > 100 | 30.5 | 7.41 | > 100 | 62.5 | > 55.8 | – | 0.281 | 45.2 | > 100 | –
O=C(NN1C(=O)C=CC1=O)c1ccccc1Nc1ccccc1C(=O)NN1C(=O)C=CC1=O | > 100 | > 100 | > 100 | > 100 | > 100 | > 100 | > 100 | – | > 100 | > 100 | –

Compound | TGI (SF-268 CNS) [µM] | TGI (TK-10 renal) [µM] | TGI (UACC-257 melanoma) [µM] | TGI (SW-620 colon) [µM] | TGI (MALME-3M melanoma) [µM] | TGI (UO-31 renal) [µM] | TGI (MCF7 breast) [µM] | TGI (A498 renal) [µM] | TGI (SN12C renal) [µM] | TGI (HL-60(TB) leukemia) [µM] | GI50 (MALME-3M melanoma) [µM]
Cc1n(CC(=O)c2ccccc2)nc2sc(N)n[n+]12 | > 100 | > 100 | > 100 | > 100 | > 100 | > 100 | > 100 | > 100 | > 100 | – | –
COc1cc(C(SCc2ccccc2)SCc2ccccc2)ccc1O | > 10 | > 10 | – | > 10 | > 10 | > 10 | > 10 | > 10 | > 10 | > 10 | –
O=C(O)/C=C/C(=O)O | > 100 | > 100 | > 100 | > 100 | > 100 | > 100 | > 100 | – | > 100 | > 100 | –
O=C(C#Cc1cn(C2CC(O)C(CO)O2)c(=O)[nH]c1=O)c1ccccc1 (stereo not drawn) | > 100 | > 100 | > 100 | 50.4 | 24.8 | > 100 | > 100 | – | > 100 | – | –
CCC(C)C1(O)OC2CC3(C)OC(=CC3=O)/C(C)=C\C3OC(=O)C1(C)C32 (stereo not drawn) | > 100 | 54.2 | 45.7 | – | – | 47.4 | 28.4 | 81.9 | 28.6 | 63.8 | –
COc1ccc(C2c3cc4c(cc3OC(N3CCCCC3)C2C)OCO4)cc1 (stereo not drawn) | > 100 | > 100 | > 100 | > 100 | – | > 100 | > 100 | – | > 100 | – | –
O=C(/C=C/c1ccccc1O)/C=C/c1ccccc1O | 0.905 | 3.27 | 21.8 | 4.36 | 4.27 | 3.59 | – | 4.18 | 3.65 | 7.62 | –
COc1ccc(/C=N/n2c(Cc3ccc(Cl)cc3)n[nH]c2=O)c(OC)c1 | 32 | 52.2 | > 100 | > 100 | > 100 | > 100 | > 100 | 51.1 | – | – | –
Cc1ccc2nc(Cl)c(/C=N/N3C(=O)/C(=C/c4ccc(N(C)C)cc4)N=C3c3ccccc3)cc2c1 | > 100 | > 100 | > 100 | > 100 | – | > 100 | > 100 | > 100 | > 100 | > 100 | –
CN1CC2CC(C1)c1cccc(=O)n1C2 (stereo not drawn) | > 100 | > 100 | > 100 | – | > 100 | > 100 | > 100 | – | > 100 | – | –
O=C(c1ccccc1)N1C(=S)N(c2ccc([N+](=O)[O-])cc2)C(=Nc2ccccc2)C1=Nc1ccccc1 | > 100 | > 100 | > 100 | > 100 | > 100 | > 100 | > 100 | – | > 100 | – | –
O=C1/C(=C/c2ccco2)NC(=S)N1CN1CCOCC1 | > 100 | > 100 | > 100 | > 100 | – | > 100 | > 100 | > 100 | > 100 | – | –
CN1CCCCC(C(O)(c2ccccc2)c2ccccc2)C1=O (stereo not drawn) | > 100 | > 100 | > 100 | 25.9 | > 100 | > 100 | – | > 100 | > 100 | – | –
Cc1nnc2sc(N/N=C/c3ccccc3)nn12 | > 100 | > 100 | > 100 | > 100 | > 100 | > 100 | > 100 | > 100 | > 100 | – | –
CC1(C)[C@@H]2C[C@H]1C(Cc1cccc(C[C@H]3c4cc(-c5ccccn5)ncc4[C@H]4C[C@@H]3C4(C)C)c1)c1cc(-c3ccccn3)ncc12 (stereo partly drawn) | > 100 | > 100 | > 42.4 | > 45.6 | 44.9 | 6.15 | > 100 | > 57 | > 100 | – | 3.65
COC1/C=C/C(C)C(C(C)C(OC)C(C)CCC(=O)C(C)C(C/C=C/N(C)C=O)OC)OC(=O)/C=C/C=C(\C)CC(OC)C(OC)C2=CC(=O)O[C@@H](C(C)C(OC)CC(OC)/C=C/C(C)C(O)C1)[C@H]2O (stereo partly drawn) | 0.407 | 0.166 | 0.338 | 0.343 | 0.493 | 0.267 | 0.977 | 0.233 | – | 0.43 | –
N#Cc1c(N2CCN(c3ccc([N+](=O)[O-])cc3)CC2)[n+](=O)c2ccc(Cl)cc2n1[O-] | 10.9 | 8.86 | 8.21 | 1.81 | 6.31 | 5.75 | > 33.3 | 2.44 | 3.05 | – | –
C/C=C\C(CC(=O)NCCC1CN(C(=O)c2ccccc2)c2ccccc21)CC(=O)OC (stereo not drawn) | > 100 | > 100 | > 100 | > 100 | > 100 | > 100 | > 100 | > 100 | – | – | –
CCOC(=O)C(NCc1cccc(C(F)(F)F)c1)(NC(=O)c1ccccc1)C(F)(F)F (stereo not drawn) | > 100 | > 100 | 68.7 | > 100 | 69 | 79.4 | > 100 | – | > 100 | > 100 | –
CCOC(=O)N(C)C1(c2ccccc2)CCN(CCCC(=O)c2ccc(F)cc2)CC1 | > 100 | > 100 | 38.2 | 9.3 | 30 | – | 85.2 | > 100 | > 100 | 79.1 | –
COC(=O)n1c(CBr)c(Br)c2ccccc21 | 75.8 | 94 | > 100 | > 100 | > 100 | 71.1 | – | – | – | 59.8 | –
COc1cc(C2S/C(=C/c3ccccc3)C(=O)N2c2cccc([N+](=O)[O-])c2)cc(OC)c1OC (stereo not drawn) | > 100 | > 100 | > 100 | – | > 100 | > 100 | > 100 | > 100 | > 100 | – | –
N#Cc1nc(/C=C/c2ccccc2)oc1N | > 100 | > 100 | > 100 | > 100 | > 100 | > 100 | > 100 | > 100 | > 100 | – | –
